The subject of assay [1] is human colorectal cancer cell lines (HCT-116 and HT-29). Briefly: Calcium level in cancer cells (Fluo-3/AM, confocal microscope). Format: cell-based. Particulars: 2.5 mM, 24 hours, vs untreated. The protocol: Each of human colorectal cancer cell lines (HCT-116 and HT-29) with the cell number of 5×10^5 cells cultured in a cancer cell culture medium (RPMI1640 medium including 10% FBS and 1% penicillin/streptomycin) at 37° C. with 5% CO2 was treated with 2.5 mM calcium lactate and then cultured for 24 hours. The cultured cancer cells were treated with 10 μM Fluo-3/AM calcium indicator and 25% Pluronic F-127, reacted at 37° C. for 30 minutes, applied with fluorescence probes, and then photographed with a confocal microscope (FIG. 2). In this case, cancer cells untreated with calcium lactate were used as control groups.

The subject of assay [2] is PARP. Put plainly: PARP protein expression in melanoma cell lines. The assay is classed as cell-based, human. Particulars: SKMEL-02 and SKMEL-28; with increasing concentration (0-10 mM), 12 hours. The procedure: Each of human melanoma cell lines (SKMEL-02 and SKMEL-28) cultured in a cancer cell culture medium (RPMI1640 medium including 10% FBS and 1% penicillin/streptomycin) at 37° C. with 5% CO2 was treated with 0 mM, 0.5 mM, 1.0 mM, 2.5 mM, 5.0 mM, or 10 mM calcium lactate for 12 hours. Then, protein expression levels of PARP expressed in the melanoma cell lines were compared (FIG. 10).

Assay [3] has as its system PDH (pyruvate dehydrogenase). Put plainly: PDH protein expression (immunofluorescence). The assay is classed as cell-based, human. Particulars: HCT-116 and HT-29; 2.5 mM, 24 hours. The protocol:
After the same method as that of Example 6-1 except that an anti-rabbit PDH antibody was used instead of the anti-rabbit LDHB antibody was performed, protein expression levels of PDH in human colorectal cancer cell lines (HCT-116 and HT-29) treated with calcium lactate were measured (FIG. 13).

Assay [4] deals with melanoma cell lines (SKMEL-02 and SKMEL-28). Briefly: Cell migration of melanoma cell lines. The assay is classed as cell-based. The following applies: 2.5 mM, 24 hours after insert removal, vs untreated. The protocol: A colorectal cancer cell line HCT-116 with the cell number of 4×10^5 cells was inoculated into a culture container at the center of which an ibidi culture insert having a thickness of 500 μm was placed, and treated with 2.5 mM calcium lactate and then cultured for 24 hours. Then, the insert was removed and further cultured for 12 hours to analyze migration of the cancer cells to a site where the insert was removed using a JuLi Br, Live cell analyzer (NanoEnTek Inc., South Korea) (FIG. 18). In this case, a colorectal cancer cell line cultured without treating with calcium lactate was used as a control group.
Using the same method as Example 8-1, with melanoma cell lines (SKMEL-02 and SKMEL-28) instead of the colorectal cancer cell line and further cultured for 24 hours after removal of the insert was performed, the effect of calcium lactate on migration of the melanoma cell lines was examined (FIG. 20).

Assay [5] has as its system human melanoma cell lines (SKMEL-02 and SKMEL-28). Briefly: Colony-forming ability of melanoma cell lines in solid medium. The assay is classed as cell-based. The protocol:
Firstly, human colorectal cancer cell lines (HCT-116, HT-29, and DLD-1) were inoculated into solid mediums including various concentrations (0 mM, 0.5 mM, 1.5 mM, or 2.5 mM) of calcium lactate and cultured for 10 days. After the completion of the culture, the cells were immobilized and stained with hematoxylin. Then, the number of cancer cells formed into colonies was counted (FIG. 23).
Then, using the same method as described above, human melanoma cell lines (SKMEL-02 and SKMEL-28) were inoculated into solid mediums including various concentrations (1 mM, 2.5 mM, or 5 mM) of calcium lactate and culture was performed, and the number of cancer cells formed into colonies were counted (FIGS. 24a and 24b).

The test system of assay [6] is PARP. Put plainly: PARP expression in tumor tissue of xenograft animal model. The assay is classed as in vivo, Balb/c mice. The following applies: HT-29 tumor tissue; 2.5 mM P.O. or 2.5 mM I.T.; vs control group. The procedure:
A colorectal cancer cell (HT-29) cultured in an RPMI1640 medium and then diluted with PBS was subcutaneously implanted into the flank of Balb/c mice. The mice were bred until the colorectal cancer cell grew to about 5 mm. Then, four groups were set up; a control group untreated with calcium lactate for 30 days, an experimental group 1 (peroral, P.O.) administered with 2.5 mM calcium lactate by oral administration, an experimental group 2 (intra tumor, I.T) injected with 2.5 mM calcium lactate around tumor, and an experimental group 3 (subcutaneous, S.C) subcutaneously injected with 25 mM calcium lactate (FIG. 27).
Colorectal cancer tissues were extracted from the mice of the control group, the experimental group 1, or the experimental group 2 set up in Example 10-1, and expression levels of PARP and truncated PARP contributing to stabilization of cancer cells expressed therein were compared (FIG. 28).

Assay [7] relates to human breast cancer cell line (MCF-7). Put plainly: Colony-forming ability, anticancer drug in combination with calcium lactate (6-well plates). The assay is classed as cell-based. Particulars: 2.5 mM calcium lactate alone, vs control. The procedure:
Human breast cancer cell line (MCF-7) and a human lung cancer cell line (A549) with the cell number of 1×10^3 cells were seeded into an RPMI1640 medium in each of 6-well plates. […] Then, the colony-forming abilities of the cells were compared. In this case, a human breast cancer cell line (MCF-7) and a human lung cancer cell line (A549) untreated with any drug were used as control groups (FIGS. 42a, 42b, 43a and 43b).
Human breast cancer cell line (MCF-7) with the cell number of 1×10^3 cells were seeded into an RPMI1640 medium in each of 6-well plates. After one day, the medium was replaced with fresh medium and the cells were treated with 2.5 mM calcium lactate or 2 μM, 4 μM, and 8 μM Lapatinib alone or treated with various concentrations (2 μM, 4 μM, and 8 μM) of Lapatinib in combination with 2.5 mM calcium lactate. Then, the colony-forming abilities of the cells were compared. In this case, a human breast cancer cell line (MCF-7) untreated with any drug was used as a control group (FIGS. 52a and 52b).

In assay [8] the test system is human kidney cancer cell line (Caki-1). The assay is described as above. The assay is classed as cell-based. Particulars: 2.5 mM calcium lactate alone, vs control. The protocol:
Human kidney cancer cell line (Caki-1) with the cell number of 1×10^3 cells were seeded into an RPMI1640 medium in each of 6-well plates. After one day, the medium was replaced with fresh medium and the cells were treated with 0.3 nM, 0.5 nM, and 1 nM Everolimus alone or treated with various concentrations (0.3 nM, 0.5 nM, and 1 nM) of Everolimus in combination with 2.5 mM calcium lactate. Then, the colony-forming abilities of the cells were compared. In this case, a human kidney cancer cell line (Caki-1) untreated with any drug was used as a control group (FIGS. 53a and 53b).

The record followed here is patent US11413261B2, “Pharmaceutical composition for treating cancer comprising lactate metal salt” (METIMEDI PHARMACEUTICALS CO., LTD, priority 2014, dated 2022).

For the compound `CC(O)C(=O)[O-].CC(O)C(=O)[O-].[Ca+2]` (stereo not shown) [calcium lactate], the “concentration of calcium in cancer cells” value in assay [1] is given as “increased”. In the assay with PARP [2], the “protein expression levels of PARP” value is reported as “decreased”. Besides, in assay [3], the “protein expression levels of PDH” value is “sharply increased”. Also, the “cell migration (metastatic capacity)” value in assay [4] was “relatively low levels of metastasis”. The number of colonies entry is recorded as “about 49 colonies” in assay [5] (SKMEL-02, 5 mM (untreated 105 to 168)); “decreased” in assay [5] (SKMEL-02 and SKMEL-28, with increasing concentration (1, 2.5, 5 mM)); “colony was not formed” in assay [5] (SKMEL-28, 5 mM). The PARP degrading activity result in the assay with PARP [6] is recorded as “increased”. Also, the colony-forming ability entry in assay [7] and in assay [8] was “suppressed” each time.
